In patent US20250018046A1, “COMPOUNDS FOR TARGETING DEGRADATION OF IRAK4 PROTEINS” (BIOGEN MA INC, priority 2021, published 2025):

What follows are molecules tested against T1, IRAK4 (Homo sapiens, UniProt Q9NWZ3) (assay: IRAK4 degradation assay using the HiBiT Method). Conditions: 293T cells expressing HiBiT-tagged IRAK4; 6-hour incubation; Nano-Glo HiBiT Lytic Assay luminescence.
T1 construct: knocking-in a HiBiT fusion tag into the C-terminal of the IRAK4 gene in 293T cells; host or cells: 293T cells, knock-in of HiBiT at the endogenous IRAK4 locus
T1 sequence (Q9NWZ3 1-460): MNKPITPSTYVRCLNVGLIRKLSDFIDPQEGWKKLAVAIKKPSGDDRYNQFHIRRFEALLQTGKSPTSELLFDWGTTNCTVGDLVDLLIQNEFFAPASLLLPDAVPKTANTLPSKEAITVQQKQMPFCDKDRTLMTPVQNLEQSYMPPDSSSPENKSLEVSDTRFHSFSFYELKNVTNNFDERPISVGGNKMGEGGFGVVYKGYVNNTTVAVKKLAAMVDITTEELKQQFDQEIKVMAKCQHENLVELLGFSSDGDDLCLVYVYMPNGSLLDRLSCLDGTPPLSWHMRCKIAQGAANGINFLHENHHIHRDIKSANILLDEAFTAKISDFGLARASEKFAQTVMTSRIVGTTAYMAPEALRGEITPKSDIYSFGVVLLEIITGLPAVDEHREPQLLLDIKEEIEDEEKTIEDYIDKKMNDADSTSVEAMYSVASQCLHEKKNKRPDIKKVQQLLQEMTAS
Assay type: cell-based
Procedure: Selected compounds were tested in an IRAK4 degradation assay using the HiBiT Method.
Phenol red-free Dulbecco's modified Eagle medium (DMEM) and fetal bovine serum (FBS) were purchased from Gibco (Grand Island, NY, USA). The Nano-Glo© HiBiT Lytic Assay System was purchased from Promega (Madison, WI, USA). Cell culture flasks and 384-well microplates were acquired from VWR (Radnor, PA, USA). The 293T cell line was engineered by knocking-in a HiBiT fusion tag into the C-terminal of the IRAK4 gene in 293T cells (Synthego, Redwood City, CA, USA).
IRAK4 degradation was measured via the quantification of luminescent signals using the Nano-Glo© HiBiT Lytic Assay kit. Test compounds were added to 384-well plates in duplicate using an 11-point half-log dilution series, with the highest dose set at 10 mM. 293T cells expressing HiBiT-tagged IRAK4 were then added into 384-well plates at a cell density of 10,000 cells per well. The plates were kept at 37° C. with 5% CO2 for 6 hours. Cells that were treated only with DMSO served as the negative control; wells that contained only assay media served as the background control. After the 6-hour incubation, Nano-Glo® HiBiT Lytic Assay reagents were added to the cells. Luminescence was acquired using an EnVision® Multilabel Reader (PerkinElmer, Santa Clara, CA, USA).

DC50 [nM]	SMILES
10 to 100	CC(C)Oc1cc2nc(C3CCN(CC(=O)N4CCN(CCc5ccc(NC6CCC(=O)NC6=O)cc5)CC4)CC3)cn2cc1NC(=O)c1cccc(C(F)(F)F)n1 (stereo not drawn) [Example 19, N-[2-[1-[2-[4-[2-[4-[(2,6-dioxo-3-piperidyl)amino]phenyl]ethyl]piperazin-1-yl]-2-oxo-ethyl]-4-piperidyl]-7-isopropoxy-imidazo[1,2-a]pyridin-6-yl]-6-(trifluoromethyl) pyridine-2-carboxamide]
100 to 500	CC(C)Oc1cc2nc(C3CCN(CC(=O)N4CCN(Cc5ccc(NC6CCC(=O)NC6=O)cc5)CC4)CC3)cn2cc1NC(=O)c1cccc(C(F)(F)F)n1 (stereo not drawn) [Example 20, N-[2-[1-[2-[4-[[4-[(2,6-dioxo-3-piperidyl)amino]phenyl]methyl]piperazin-1-yl]-2-oxo-ethyl]-4-piperidyl]-7-isopropoxy-imidazo[1,2-a]pyridin-6-yl]-6-(trifluoromethyl) pyridine-2-carboxamide]
10 to 100	CC(C)Oc1cc2nc(C3CCN(CC(=O)N4CCC(c5ccc(OC6CCC(=O)NC6=O)cc5)CC4)CC3)cn2cc1NC(=O)c1cccc(C(F)(F)F)n1 (stereo not drawn) [Example 21, N-[2-[1-[2-[4-[4-[(2,6-dioxo-3-piperidyl)oxy]phenyl]-1-piperidyl]-2-oxo-ethyl]-4-piperidyl]-7-isopropoxy-imidazo[1,2-a]pyridin-6-yl]-6-(trifluoromethyl)pyridine-2-carboxamide]
10 to 100	CC(C)Oc1cc2nc(C3CCN(CC(=O)N4CCN(c5ccc(C6CCC(=O)NC6=O)cc5)CC4)CC3)cn2cc1NC(=O)c1cccc(C(F)(F)F)n1 (stereo not drawn) [Example 22, N-[2-[1-[2-[4-[4-(2,6-dioxo-3-piperidyl)phenyl]piperazin-1-yl]-2-oxo-ethyl]-4-piperidyl]-7-isopropoxy-imidazo[1,2-a]pyridin-6-yl]-6-(trifluoromethyl)pyridine-2-carboxamide]
10 to 100	CC(C)Oc1cc2nc(C3CCN(CC(=O)N4CCC(c5ccc(NC6CCC(=O)NC6=O)cc5)CC4)CC3)cn2cc1NC(=O)c1cccc(C(F)(F)F)n1 (stereo not drawn) [Example 23, N-[2-[1-[2-[4-[4-[(2,6-dioxo-3-piperidyl)amino]phenyl]-1-piperidyl]-2-oxo-ethyl]-4-piperidyl]-7-isopropoxy-imidazo[1,2-a]pyridin-6-yl]-6-(trifluoromethyl)pyridine-2-carboxamide]
10 to 100	CC(C)Oc1cc2nc(C3CCN(CC(=O)N4CCC(c5ccc(NC6CCC(=O)NC6=O)cc5F)CC4)CC3)cn2cc1NC(=O)c1cccc(C(F)(F)F)n1 (stereo not drawn) [Example 24, N-[2-[1-[2-[4-[4-[(2,6-dioxo-3-piperidyl)amino]-2-fluoro-phenyl]-1-piperidyl]-2-oxo-ethyl]-4-piperidyl]-7-isopropoxy-imidazo[1,2-a]pyridin-6-yl]-6-(trifluoromethyl)pyridine-2-carboxamide]
100 to 500	CC(C)Oc1cc2nc(C3CCN(CC(=O)N4CCC(c5ccc(CN6CCC(=O)NC6=O)cc5)CC4)CC3)cn2cc1NC(=O)c1cccc(C(F)(F)F)n1 [Example 25, N-[2-[1-[2-[4-[4-[(2,4-dioxohexahydropyrimidin-1-yl)methyl]phenyl]-1-piperidyl]-2-oxo-ethyl]-4-piperidyl]-7-isopropoxy-imidazo[1,2-a]pyridin-6-yl]-6-(trifluoromethyl) pyridine-2-carboxamide]
100 to 500	CC(C)Oc1cc2nc(C3CCN(CC(=O)N4CCN(c5ccc6c(N7CCC(=O)NC7=O)nn(C)c6c5)CC4)CC3)cn2cc1NC(=O)c1cccc(C(F)(F)F)n1 [Example 26, N-[2-[1-[2-[4-[3-(2,4-dioxohexahydropyrimidin-1-yl)-1-methyl-indazol-6-yl]piperazin-1-yl]-2-oxo-ethyl]-4-piperidyl]-7-isopropoxy-imidazo[1,2-a]pyridin-6-yl]-6-(trifluoromethyl)pyridine-2-carboxamide]
100 to 500	CC(C)Oc1cc2nc(C3CCN(CC(=O)N4CCN(c5ccc(NC6CCC(=O)NC6=O)cc5)CC4)CC3)cn2cc1NC(=O)c1cccc(C(F)(F)F)n1 (stereo not drawn) [Example 27, N-[2-[1-[2-[4-[4-[(2,6-dioxo-3-piperidyl)amino]phenyl]piperazin-1-yl]-2-oxo-ethyl]-4-piperidyl]-7-isopropoxy-imidazo[1,2-a]pyridin-6-yl]-6-(trifluoromethyl)pyridine-2-carboxamide]
10 to 100	CC(C)Oc1cc2nc(C3CCN(CC(=O)N4CCN(c5ccc(OC6CCC(=O)NC6=O)cc5)CC4)CC3)cn2cc1NC(=O)c1cccc(C(F)(F)F)n1 (stereo not drawn) [Example 28, N-[2-[1-[2-[4-[4-[(2,6-dioxo-3-piperidyl)oxy]phenyl]piperazin-1-yl]-2-oxo-ethyl]-4-piperidyl]-7-isopropoxy-imidazo[1,2-a]pyridin-6-yl]-6-(trifluoromethyl)pyridine-2-carboxamide]
10 to 100	CC(C)Oc1cc2nc(C3CCN(CC(=O)N4CCC(c5ccc(C6CCC(=O)NC6=O)cc5)CC4)CC3)cn2cc1NC(=O)c1cccc(C(F)(F)F)n1 (stereo not drawn) [Example 29, N-[2-[1-[2-[4-[4-(2,6-dioxo-3-piperidyl)phenyl]-1-piperidyl]-2-oxo-ethyl]-4-piperidyl]-7-isopropoxy-imidazo[1,2-a]pyridin-6-yl]-6-(trifluoromethyl)pyridine-2-carboxamide]
100 to 500	CC(C)Oc1cc2nc(C3CCN(CCC(=O)N4CCC(c5ccc(NC6CCC(=O)NC6=O)cc5)CC4)CC3)cn2cc1NC(=O)c1cccc(C(F)(F)F)n1 (stereo not drawn) [Example 30, N-[2-[1-[3-[4-[4-[(2,6-dioxo-3-piperidyl)amino]phenyl]-1-piperidyl]-3-oxo-propyl]-4-piperidyl]-7-isopropoxy-imidazo[1,2-a]pyridin-6-yl]-6-(trifluoromethyl)pyridine-2-carboxamide]
100 to 500	CC(C)Oc1cc2nc(C3CCN(CCC(=O)N4CCC(c5ccc(NC6CCC(=O)NC6=O)cc5F)CC4)CC3)cn2cc1NC(=O)c1cccc(C(F)(F)F)n1 (stereo not drawn) [Example 31, N-[2-[1-[3-[4-[4-[(2,6-dioxo-3-piperidyl)amino]-2-fluoro-phenyl]-1-piperidyl]-3-oxo-propyl]-4-piperidyl]-7-isopropoxy-imidazo[1,2-a]pyridin-6-yl]-6-(trifluoromethyl)pyridine-2-carboxamide]
100 to 500	CC(C)Oc1cc2nc(C3CCN(CCC(=O)N4CCC(c5ccc(C6CCC(=O)NC6=O)cc5)CC4)CC3)cn2cc1NC(=O)c1cccc(C(F)(F)F)n1 (stereo not drawn) [Example 32, N-[2-[1-[3-[4-[4-(2,6-dioxo-3-piperidyl)phenyl]-1-piperidyl]-3-oxo-propyl]-4-piperidyl]-7-isopropoxy-imidazo[1,2-a]pyridin-6-yl]-6-(trifluoromethyl)pyridine-2-carboxamide]
100 to 500	CC(C)Oc1cc2nc(C3CCN(CCC(=O)N4CCN(c5ccc(OC6CCC(=O)NC6=O)cc5)CC4)CC3)cn2cc1NC(=O)c1cccc(C(F)(F)F)n1 (stereo not drawn) [Example 33, N-[2-[1-[3-[4-[4-[(2,6-dioxo-3-piperidyl)oxy]phenyl]piperazin-1-yl]-3-oxo-propyl]-4-piperidyl]-7-isopropoxy-imidazo[1,2-a]pyridin-6-yl]-6-(trifluoromethyl)pyridine-2-carboxamide]
100 to 500	CC(C)Oc1cc2nc(C3CN(CCC(=O)N4CCC(c5ccc(NC6CCC(=O)NC6=O)cc5)CC4)C3)cn2cc1NC(=O)c1cccc(C(F)(F)F)n1 (stereo not drawn) [Example 34, N-[2-[1-[3-[4-[4-[(2,6-dioxo-3-piperidyl)amino]phenyl]-1-piperidyl]-3-oxo-propyl]azetidin-3-yl]-7-isopropoxy-imidazo[1,2-a]pyridin-6-yl]-6-(trifluoromethyl)pyridine-2-carboxamide]
100 to 500	CC(C)Oc1cc2nc(C3CCC(CN4CCC(c5ccc(C6CCC(=O)NC6=O)cc5)CC4)CC3)cn2cc1NC(=O)c1cccc(C(F)(F)F)n1 (stereo not drawn) [Example 35, N-[2-[4-[[4-[4-(2,6-dioxo-3-piperidyl)phenyl]-1-piperidyl]methyl]cyclohexyl]-7-isopropoxy-imidazo[1,2-a]pyridin-6-yl]-6-(trifluoromethyl)pyridine-2-carboxamide]
10 to 100	CC(C)Oc1cc2nc([C@H]3CC[C@H](CN(C)C4CCN(c5ccc(NC6CCC(=O)NC6=O)cc5)CC4)CC3)cn2cc1NC(=O)c1cccc(C(F)(F)F)n1 (stereo partly drawn) [Example 36, N-[2-[4-[[[1-[4-[(2,6-dioxo-3-piperidyl)amino]phenyl]-4-piperidyl]-methyl-amino]methyl]cyclohexyl]-7-isopropoxy-imidazo[1,2-a]pyridin-6-yl]-6-(trifluoromethyl)pyridine-2-carboxamide]
